Patent publication US20170150719A1, “FUNGICIDAL PYRAZOLES AND THEIR MIXTURES” (E I DU PONT DE NEMOURS AND COMPANY, priority 2010, published 2017)

Columns and labels:
Septoria nodorum = experiment: Test E: Septoria glume blotch, preventive spray on wheat seedlings, visual disease rating; conditions: Septoria glume blotch on wheat, preventive spray; 100 = 100% disease control; rating without asterisk
Alternaria solani = experiment: Test B: tomato early blight, preventive spray on tomato seedlings, visual disease rating; conditions: tomato early blight, preventive spray; 100 = 100% disease control; rating without asterisk
[1] = system: Puccinia recondita f. sp. tritici; experiment: Test H: wheat leaf rust, preventive spray on wheat seedlings, visual disease rating; conditions: wheat leaf rust, preventive spray; 100 = 100% disease control; rating without asterisk
[2] = system: Blumeria graminis f. sp. tritici; experiment: Test I: wheat powdery mildew, preventive spray on wheat seedlings, visual disease rating; conditions: wheat powdery mildew, preventive spray; 100 = 100% disease control; rating without asterisk
[3] = system: Puccinia recondita f. sp. tritici; experiment: Test G: wheat leaf rust, spray after inoculation (curative) on wheat seedlings, visual disease rating; assay type: in vivo; conditions: spray after inoculation, 100 = 100% disease control, rating without asterisk
From the text: (§1) A hyphen (-) indicates no test results.

Botrytis cinerea = experiment: Test A: tomato Botrytis, preventive spray on tomato seedlings, visual disease rating; conditions: tomato Botrytis, preventive spray; 100 = 100% disease control, 0 = no control relative to controls; rating without asterisk
Septoria tritici = experiment: Test F: wheat leaf blotch, preventive spray on wheat seedlings, visual disease rating; assay type: in vivo; conditions: preventive spray, 100 = 100% disease control, rating without asterisk
From the text: as §1

| Structure (SMILES) | Test E rating (% disease control) (Septoria nodorum) [%] | Test B rating (% disease control) (Alternaria solani) [%] | Test H rating (% disease control) [1] [%] | Test I rating (% disease control) [2] [%] | Test G rating (% disease control) [3] [%] | Test A rating (% disease control) (Botrytis cinerea) [%] | Test F rating (% disease control) (Septoria tritici) [%] |
| --- | --- | --- | --- | --- | --- | --- | --- |
| Cc1nn(C)c(Nc2ccc(Br)cc2Br)c1-c1ccc(F)cc1F [compound 184] | 60 | 58 | 98 | 100 | 0 | 100 | 100 |
| Cc1nn(C)c(Nc2c(Cl)cc(Cl)cc2I)c1-c1ccc(F)cc1Cl [compound 197] | 0 | 77 | 97 | 94 | 9 | 100 | 100 |
| CCOc1cc(F)c(-c2c(C)nn(C)c2Nc2c(F)cc(Cl)cc2Cl)c(F)c1 [compound 198] | 60 | 100 | 80 | 96 | 9 | 100 | 100 |
| COc1ccc(-c2c(C)nn(C)c2Nc2c(F)cc(Cl)cc2Cl)c(Cl)c1 [compound 201] | 99 | 100 | 100 | 97 | 98 | 100 | 100 |
| CCOc1ccc(-c2c(C)nn(C)c2Nc2c(F)cc(Cl)cc2Cl)c(Cl)c1 [compound 202] | 0 | 77 | 92 | 95 | 35 | 99 | 100 |
| COc1ccc(-c2c(C)nn(C)c2Nc2c(F)cc(F)cc2Cl)c(Cl)c1 [compound 203] | 73 | 100 | 100 | 98 | 79 | 95 | 100 |
| COc1ccc(-c2c(C)nn(C)c2Nc2c(F)cc(Cl)cc2F)c(Cl)c1 [compound 204] | 99 | 99 | 100 | 100 | 99 | 99 | 100 |
| COc1ccc(-c2c(C)nn(C)c2Nc2c(Cl)cc(F)cc2Cl)c(Cl)c1 [compound 205] | 0 | 31 | 99 | 21 | 0 | 59 | 100 |
| CCOc1ccc(-c2c(C)nn(C)c2Nc2c(F)cc(F)cc2Cl)c(Cl)c1 [compound 206] | 99 | 100 | 99 | 100 | 0 | 99 | 100 |
| CCOc1ccc(-c2c(C)nn(C)c2Nc2c(F)cc(Cl)cc2F)c(Cl)c1 [compound 207] | 86 | 99 | 94 | 99 | 0 | 94 | 100 |
| CCOc1ccc(-c2c(C)nn(C)c2Nc2c(Cl)cc(F)cc2Cl)c(Cl)c1 [compound 208] | 0 | 0 | 85 | 27 | 0 | 18 | 99 |
| CCOc1ccc(-c2c(C)nn(C)c2Nc2ccc(F)cc2F)c(Cl)c1 [compound 209] | 0 | 95 | 92 | 100 | 0 | 98 | 100 |
| Cc1nn(C)c(Nc2c(Cl)cc(Cl)cc2I)c1-c1ccc(F)cc1F [compound 210] | 0 | 0 | 97 | 0 | 0 | 3 | 100 |
| Cc1nn(C)c(Nc2c(F)cc(Br)cc2Br)c1-c1ccc(F)cc1F [compound 211] | 99 | 99 | 100 | 100 | 82 | 98 | 100 |
| Cc1nn(C)c(Nc2c(F)cc(Br)cc2Br)c1-c1ccc(F)cc1Cl [compound 212] | 100 | 100 | 100 | 100 | 97 | 98 | 100 |
| Cc1nn(C)c(Nc2c(F)cc(F)cc2I)c1-c1ccc(F)cc1Cl [compound 213] | 100 | 100 | 100 | 100 | 100 | 100 | 100 |
| Cc1nn(C)c(Nc2c(F)cc(F)cc2I)c1-c1ccc(F)cc1F [compound 214] | 99 | 100 | 99 | 100 | 99 | 100 | 100 |
| Cc1nn(C)c(Nc2c(F)cc(F)cc2I)c1-c1ccc(F)cc1Br [compound 215] | 99 | 100 | 100 | 100 | 100 | 100 | 100 |
| Cc1nn(C)c(Nc2c(F)cc(I)cc2F)c1-c1ccc(F)cc1F [compound 216] | 60 | 0 | 95 | 99 | 18 | 100 | 100 |
| Cc1nn(C)c(Nc2c(F)cc(I)cc2F)c1-c1ccc(F)cc1Cl [compound 217] | 86 | 58 | 99 | 99 | 41 | 100 | 100 |
